From patent US20150141411A1, “SUBSTITUTED 3,4-DIHYDRO-2H-PYRIDO[1,2-A]PYRAZINE-1,6-DIONE DERIVATIVES USEFUL FOR THE TREATMENT OF (INTER ALIA) ALZHEIMER'S DISEASE” (Janssen Pharmaceuticals, Inc., priority 2012, published 2015)

What was measured:
γ-secretase [1] = molecular target: T1, γ-secretase (Homo sapiens, UniProt P49768); assay: Screening for γ-secretase-modulating activity: Aβ42 in supernatant of SKNBE2 cells carrying hAPP 695 wild type (Alphalisa); assay type: cell-based; settings: SKNBE2 human neuroblastoma cells carrying hAPP 695 wild type, overnight incubation, Aβ42 in cell supernatant
T1 construct: endogenous in cells; host or cells: SKNBE2 human neuroblastoma cells (carrying hAPP 695 wild type as substrate)
Outline: (§1)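 SKNBE2 neuroblastoma cells expressing wild-type hAPP 695 plated at 10^4 cells/well in Ultraculture with test compound, incubated overnight at 37° C. Aβ42 (C-terminal/N-terminal antibody pair) and Aβtotal (N-terminal/4G8 pair) in supernatant quantified by AlphaLISA. IC50 from 4-parameter fit of percent of compound-free control.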

γ-secretase [2] = molecular target: T1, γ-secretase; assay: Screening for γ-secretase-modulating activity: Aβtotal in supernatant of SKNBE2 cells carrying hAPP 695 wild type (Alphalisa); assay type: cell-based; settings: SKNBE2 human neuroblastoma cells carrying hAPP 695 wild type, overnight incubation, Aβtotal in cell supernatant
Outline: as §1

Aβ38 = assay: In vivo efficacy: brain soluble Aβ38 in non-transgenic rodents (MSD electrochemiluminescence multiplex); set-up: species or system mouse; settings: Mus musculus, po, 4 h, dose 30 mg/kg oral dosing, brain soluble fraction, animals sacrificed after 4 h, untreated animals (Ctrl) set at 100, read-out: Aβ38 (% vs Ctrl)_Mean
From the text: To determine whether acute administration of an Aβ38 increasing agents would increase Aβ38 levels in vivo, non-transgenic rodents, e.g. mice or rats were used. Animals treated with the Aβ38 increasing agents were examined and compared to those untreated or treated with vehicle and brain levels of soluble Aβ42, Aβ40, Aβ38, and Aβ37 were quantitated by MSD electrochemiluminescence detection technology. Treatment periods varied from hours (h) to days and were adjusted based on the results of the Aβ38 increase once a time course of onset of effect could be established.
A typical protocol for measuring Aβ38 increase in vivo is shown but it is only one of many variations that could be used to optimize the levels of detectable Aβ. For example, Aβ38 increasing agents were formulated in 20% of Captisol® (a sulfobutyl ether of β-cyclodextrin) in water or 20% hydroxypropyl βcyclodextrin. The Aβ38 increasing agents were administered as a single oral dose or by any acceptable route of administration to overnight fasted animals. After 4 h, the animals were sacrificed and Aβ38 levels were analysed.
Blood was collected by decapitation and exsanguinations in EDTA-treated collection tubes. Blood was centrifuged at 1900 g for 10 minutes (min) at 4° C. and the plasma recovered and flash frozen for later analysis. The brain was removed from the cranium and hindbrain. The cerebellum was removed and the left and right hemisphere were separated. The left hemisphere was stored at −18° C. for quantitative analysis of test compound levels. The right hemisphere was rinsed with phosphate-buffered saline (PBS) buffer and immediately frozen on dry ice and stored at −80° C. until homogenization for biochemical assays.
Mouse brains from non-transgenic animals were resuspended in 8 volumes of 0.4% DEA (diethylamine)/50 mM NaCl containing protease inhibitors (Roche-11873580001 or 04693159001) per gram of tissue, e.g. for 0.158 g brain, add 1.264 ml of 0.4% DEA. All samples were homogenized in the FastPrep-24 system (MP Biomedicals) using lysing matrix D (MPBio #6913-100) at 6 m/s for 20 seconds. Homogenates were centrifuged at 20800×g for 5 min and supernatants collected. Supernatants were centrifuged at 221.300×g for 50 min. The resulting high speed supernatants were then transferred to fresh eppendorf tubes. Nine parts of supernatant were neutralized with 1 part 0.5 M Tris-HCl pH 6.8 and used to quantify Aβ.
To quantify the amount of Aβ42, Aβ40, Aβ38, and Aβ37 in the soluble fraction of the brain homogenates, simultaneous specific detection of Aβ42, Aβ40, Aβ38, and Aβ37 was performed using MSD's electro-chemiluminescence multiplex detection technology. In this assay purified monoclonal antibodies specific for Abeta37 (JRD/Aβ37/3), Abeta38 (J&JPRD/Aβ38/5), Abeta40 (JRF/cAβ40/28), and Abeta42 (JRF/cAβ42/26) were coated on MSD 4-plex plates. Briefly, the standards (a dilution of synthetic Aβ42, Aβ40, Aβ38, and Aβ37) were prepared in 1.5 ml Eppendorf tube in Ultraculture, with final concentrations ranging from 10000 to 0.3 pg/m. The samples and standards were co-incubated with Sulfo-tag labelled JRF/rAβ/2 antibody to the N-terminus of Aβ as detector antibody. 50 μl of conjugate/sample or conjugate/standards mixtures were then added to the antibody-coated plate. The plate was allowed to incubate overnight at 4° C. in order to allow formation of the antibody-amyloid complex. Following this incubation and subsequent wash steps the assay was finished by adding read buffer according to the manufacturer's instructions (MesoScale Discovery, Gaitherburg, Md.).
The SULFO-TAG emits light upon electrochemical stimulation initiated at the electrode. MSD Sector instrument SI6000 was used for signal read-out.
In this model a Aβ38 increase compared to untreated animals would be advantageous, in particular a Aβ38 increase with at least 10%, more in particular a Aβ38 increase with at least 20%. […]

Row | SMILES | IC50 (γ-secretase [1]) | IC50 (γ-secretase [2]) | response vs control in vivo at 30 mg/kg (Aβ38)
1 | COc1cccc(CN2C(=O)c3ccc(-n4cnc(C)c4)c(=O)n3C[C@H]2C)c1 [compound 132] | 2140 nM | > 10000 nM | 84%
2 | Cc1cn(-c2ccc3n(c2=O)C[C@@H](C)N(Cc2ccc(F)c(F)c2)C3=O)cn1 [compound 133] | 1510 nM | > 10000 nM | 84%
3 | Cc1cn(-c2ccc3n(c2=O)C[C@@H](C)N(Cc2cc(CC(F)(F)F)cc(C(F)(F)F)c2)C3=O)cn1 [compound 134] | 100 nM | > 10000 nM | 138%
4 | Cc1cn(-c2ccc3n(c2=O)C[C@@H](C)N(Cc2cc(OC(F)(F)F)cc(C(F)(F)F)c2)C3=O)cn1 [compound 140] | 60 nM | > 10000 nM | 96%
5 | Cc1cn(-c2ccc3n(c2=O)C[C@@H](C)N(Cc2cc(Br)cc(C(F)(F)F)c2)C3=O)cn1 [compound 145] | 110 nM | > 10000 nM | 102%

Now from value to compound, other results behind:

Row | IC50 (γ-secretase [1]) | IC50 (γ-secretase [2]) | SMILES | response vs control in vivo at 30 mg/kg (Aβ38)
6 | 460 nM | > 10000 nM | Cc1cn(-c2cc(F)c3n(c2=O)C[C@@H](C)N(Cc2cc(C(F)(F)F)cc(C(F)(F)F)c2)C3=O)cn1 [compound 158] | 120%
7 | 50 nM | > 10000 nM | Cc1cn(-c2ccc3n(c2=O)C[C@@H](C)N(Cc2cc(OCC(F)(F)F)cc(C(F)(F)F)c2)C3=O)cn1 [compound 166] | 127%
8 | 30 nM | 6460 nM | Cc1cn(-c2ccc3n(c2=O)C[C@@H](C)N(Cc2c[nH]c4cc(F)c(Cl)cc24)C3=O)cn1 [compound 195] | 123%
